Data taken from US9636327B2 (University Health Network, Toronto General Hospital, priority 2013, dated 2017).

Tests used:
[1] = more water-soluble than dantrolene; cited from earlier work
[2] = tested on: Yorkshire pigs; assay: In-vivo swine model of VF cardiac arrest with CPR and defibrillation;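 note: VF induced by burst pacing in anesthetized pigs, left untreated 4 min, then 3 min CPR and defibrillation, with ECG and aortic pressure monitored for 30 min afterwards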
From the text: Previously healthy 10-12 weeks-old Yorkshire pigs (n=24) were used. […] Following endotracheal intubation anesthesia was maintained by continuous administration of Isoflurane (2% mixed with 100% O2) and ventilated (Ohio ventilator R.A.E. Technologies, Inc. Ontario) at 21 breaths/min and was continuously measured using CO2MO Plus monitoring system (Novametrix Medical Systems). Animals were continuously monitored using Lifepak 12 Medtronic-PhysioControl defibrillator for ECG monitoring. Two self-adhesive defibrillation pads were attached to the lateral aspects of the chest wall for defibrillation. (Medtronics Inc, Redmond, Wash.)
Femoral arteries and veins were catheterized and an EP catheter (EP Technologies Inc, Sunnyvale, Calif.) was placed in the right ventricle to enable pacing and to induce VF. Two micro manometer-tipped Millar catheters (Millar Instruments, Inc, Houston, Tex.) were placed in Abdominal Aorta and right atrium. Pacing catheter was further attached to a custom designed signal acquisition and processing system. (Electrophysiological Recording system-Acqui2, Toronto, ON) The pressure and ECG signals were recorded at 1000 Hz with a 0.05 Hz high pass and 500 Hz low pass filter by custom software. (Acqui2, Cartesian Labs)
After initial monitoring and stabilization, VF was induced by burst pacing (10V of 60 Hz current for 2 seconds) and left untreated for 4 minutes. Then, chest compression was started using a pneumatic device (Lucas, Jolife AB, Lund, Sweden) at 100 compressions/min and manual ventilation at 6 breath/min using 5-6 liters/min of 100% O2 with an AMBU bag was performed. CPR was continued for 3 minutes with no interruption of chest compressions. […] After successful defibrillation, animals were monitored for 30 min to assess the outcome and occurrence of Refibrillations. At the end, survivors were sacrificed by inducing VF. If animals could not be defibrillated during refibrillation, the energy level was increased in a stepwise fashion to up to 4 attempts at 360 J.
Refibrillation was defined as recurrence of VF after at least 5 beats of a non-VF rhythm following defibrillation. Survival was determined based on presence of sBP≧30 mmHg in abdominal aorta and normal sinus rhythm at the end of 30 min observation period. Time to Return of Spontaneous Circulation (ROSC) was calculated from the onset of CPR until sBP≧60 mmHg was attained in abdominal aorta after successful defibrillation. Sustained ROSC was defined as maintenance of sBP≧60 mmHg by the end of 30-min observation post-defibrillation. Ventricular ERP was measured at baseline and at 20 minutes into recovery (if any) via the S1-S2 stimulation method. Surface ECG signals at 4 min of VF and at 7 min of VF were extracted to analyze for VF organization. A Spatio-temporal index of VF organization (Regularity Index (RI)) was used. RI was defined as the ratio of the power at the Dominant Frequency (DF) to the total power. […] The total power was calculated as the sums over the range of 5-15 Hz. Values vary between 0 (disorganized) to 1 (highly organized).
Mean time to ROSC, mean time to successful defibrillation, onset of refibrillation and regularity index of VF at different time points were analyzed using unpaired student t-test. Repeated-measures ANOVA was used to compare continuous variables between groups at different time points. Protein phosphorylation analysis and comparison of ordinal variables (number of refibrillations) were performed using Wilcoxon Mann-Whitney test. […] P<0.05 was considered statistically significant. All statistical analysis were performed using Stata 11.1 (Stata Corp LP)

[3] = tested on: isolated rabbit hearts; assay: Ex-vivo rabbit model: Langendorff-perfused isolated hearts, VF induction and optical mapping of calcium alternans; set-up: species or system New-Zealand white rabbits
Method: New-Zealand white rabbits with weight ranging from 2.4-4.5 Kg were used. (n=14). All animals were anesthetized with sodium pentobarbital (35 mg/kg), aorta was attached to the Langendorff apparatus and retrogradely perfused with 37.5° C. oxygenated Tyrode solution with albumin 80 mg/L in deionized water equilibrated with 95% 02 and 5% CO2. Simultaneous optical mapping of epicardial surface of isolated hearts for Calcium and Voltage was performed using 0.5 mg Rhod2-AM and 10 microM/1 RH237. Blebbistatin at 10 microM/L was added to Tyrode solution to block cardiac contractions.
VF was induced by burst pacing for 30 sec at 60 Hz and 10V and hearts were continuously perfused during VF. […] VF was monitored for 4 min and then defibrillated at 5 J. Five minutes after termination of first VF episode, 4 more episodes of fibrillation-defibrillation were tried on each heart with 5 min recovery time (in sinus rhythm) in between. VF duration for each VF episode was 4 min (or shorter in case of self-termination) followed by defibrillation. […] Additionally, hearts were paced at various rates of 250, 220, 200, 180 and 160 msec Cycle Length (CL) for 30 seconds after first and second VF episodes. Simultaneous optical mapping of Calcium and voltage was performed during pacing to evaluate for Calcium Alternans. Calcium alternans was defined as beat-to-beat difference of more than 10% in Calcium wave amplitude. At the end of the experiment, LV tissue from the LV free wall was removed and frozen in liquid Nitrogen for further western blot analysis.
P<0.05 was considered statistically significant.

[4] = 2 mg/kg bolus, defibrillation energy
[5] = 2 mg/kg bolus, post-defibrillation

For O=C1CN(/N=C/c2ncc(-c3ccc(Br)cc3)o2)C(=O)N1 [Azumolene], the “water solubility relative to dantrolene” value [1] is listed as 30 times.

In the case of O=C1CN(N=Cc2ccc(-c3ccc([N+](=O)[O-])cc3)o2)C(=O)N1.[Na] [Dantrolene, 1-[[[5-(4-nitrophenyl)-2-furanyl]methylene]amino]-2,4-imidazolidinedione sodium salt], the “Number of Refibrillations” value ([2]; 2 mg/kg bolus) is reported as 0.6 ± 0.4, the “Number of shocks to terminate refibrillations” value ([2]; 2 mg/kg bolus) is reported as 1 ± 0 and the “Sinus rhythm immediately post-defibrillation” value ([2]; 2 mg/kg bolus) is reported as “approximately 90.91%”. The “Survival after Refibrillation” value ([2]; 2 mg/kg bolus) was 100% (3), the “Time to ROSC calculated from immediately post-defibrillation” value ([2]; 2 mg/kg bolus) was “about 13±4 sec” and the “Time to onset of Refibrillation” value ([2]; 2 mg/kg bolus) was 51 ± 9 s. For the same compound, the “animals requiring energy levels ≦200J for defibrillating the initial VF” value ([2]; 2 mg/kg bolus) was “Ninety”, the “sBP peak at 5 min post-defibrillation” value ([2]; 2 mg/kg bolus) was “approximately 98±17 mmHg” and the “Final Rhythm PEA” value ([2]; 2 mg/kg bolus at onset of CPR) was 0%. The “Final Rhythm Sinus” value ([2]; 2 mg/kg bolus at onset of CPR) was 90.91%, the “Final Rhythm VF (or VrF)” value ([2]; 2 mg/kg bolus at onset of CPR) was 9.09% and the “ROSC (at 5 min post-defibrillation)” value ([2]; 2 mg/kg bolus at onset of CPR) was 90.91%. The “post-defibrillation VERP” value ([2]; 2 mg/kg bolus, 20 minutes into recovery) was “about 215±9 msec”, the “Refibrillation Incidence” value ([2]; 2 mg/kg bolus, 30 min monitoring after defibrillation) was 36.36% and the Maximum energy level [2, 4] was 187 ± 62 J. The Total energy level [2, 4] was 366 ± 139, the “Total time in VF Including VrF (refibrillation)” value ([2]; 2 mg/kg bolus, initial VF plus all refibrillations) was 478 ± 19 s and the “Total time in VF Excluding VrF” value ([2]; 2 mg/kg bolus, initial VF without refibrillations) was 466 ± 18 s. For the same compound, the QT interval post-defibrillation [2, 5] was “about 334±83 msec”, the “Tp-Tn (repolarization dispersion) post-defibrillation” value [2, 5] was “about 84±22 msec” and the “Number of shocks (>2 attempts)” value ([2]; 2 mg/kg bolus, share of animals needing >2 attempts) was 9.09%. For the same compound, the Refibrillation duration ([2]; 2 mg/kg bolus, sodium salt, 2 mg/kg) was 32 ± 6 s, the “mean dBP at the end of experiment” value ([2]; 2 mg/kg bolus, survivors) was “about 61±10 mmHg” and the “mean sBP at the end of experiment” value ([2]; 2 mg/kg bolus, survivors) was “about 84±11 mmHg”. For the same compound, the Successful defibrillation ([2]; Dantrolene Sodium 2 mg/kg bolus at onset of CPR after 4 min untreated VF) was 100%, the “QT interval at baseline” value ([2]; Dantrolene group, baseline) was “about 432±48 msec” and the “Tp-Tn (repolarization dispersion) at baseline” value ([2]; Dantrolene group, baseline) was “about 68±23 msec”. For the same compound, the “Incidence of CaA-ALT after second VF” value ([3]; Dantrolene 10-20 μM/l) was “approximately 12.5%”, the “mean duration of all VF episodes combined” value ([3]; Dantrolene 10-20 μM/l) was “about 194±234 sec” and the “successful attempts to induce VF (VF lasting ≧10 sec)” value ([3]; Dantrolene 10-20 μM/l infused at 1 min of first VF, 12 of 31 attempts) was 38.7%. The “VF episodes sustained >60 sec” value ([3]; Dantrolene 10-20 μM/l, 7 of 31 attempts) was 22.58% and the alternans threshold ([3]; Dantrolene 10-20 μM/l, pacing cycle length) was “about 186±11 msec CL”.
